Measured values: the supplement of paper PMC10307832

Columns and labels:
Experiment in all cases: relative viability (nuclei count vs DMSO), 5 days (fraction); higher = more cells survive
Everolimus = compound: CO[C@H]1C[C@@H]2CC[C@@H](C)[C@@](O)(O2)C(=O)C(=O)N2CCCC[C@H]2C(=O)O[C@H]([C@H](C)C[C@@H]2CC[C@@H](OCCO)[C@H](OC)C2)CC(=O)[C@H](C)/C=C(\C)[C@@H](O)[C@@H](OC)C(=O)[C@H](C)C[C@H](C)/C=C/C=C/C=C/1C [Everolimus]
In short: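 Lung cancer cell lines in 1536-well plates were kept overnight at 37 °C, then pinned with five library-drug doses (not always all listed) spaced by √10 on vehicle-anchored plates. After 5 days without medium change, cells were fixed, permeabilised and Hoechst-stained in one step, imaged at 4×, and nuclei were counted with MetaXpress. Viability is treated-well nuclei divided by vehicle-well nuclei, taken as the median over plates. Plates passed only with control CV below 25% and at least one doubling.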

Everolimus + Foretinib = compound: CO[C@H]1C[C@@H]2CC[C@@H](C)[C@@](O)(O2)C(=O)C(=O)N2CCCC[C@H]2C(=O)O[C@H]([C@H](C)C[C@@H]2CC[C@@H](OCCO)[C@H](OC)C2)CC(=O)[C@H](C)/C=C(\C)[C@@H](O)[C@@H](OC)C(=O)[C@H](C)C[C@H](C)/C=C/C=C/C=C/1C [Everolimus] + COc1cc2c(Oc3ccc(NC(=O)C4(C(=O)Nc5ccc(F)cc5)CC4)cc3F)ccnc2cc1OCCCN1CCOCC1 [Foretinib] (partner 0.25 µM)
In short: (§1)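 Lung cancer cell lines were seeded in 1536-well plates and dosed by pin tool the next day, with either a single drug or a fixed anchor-drug dose combined with five library-drug doses (not always all listed) spaced in √10 steps. Five days later, one step fixed the cells and stained their nuclei (final 0.05% Triton X-100, 1% formaldehyde, 1 ug/ml Hoechst), and nuclei were counted on 4× images. Relative viability is the nuclei count in treated wells divided by the count in vehicle wells, and each value is the median of duplicate plates.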

Everolimus + Palbociclib = compound: CO[C@H]1C[C@@H]2CC[C@@H](C)[C@@](O)(O2)C(=O)C(=O)N2CCCC[C@H]2C(=O)O[C@H]([C@H](C)C[C@@H]2CC[C@@H](OCCO)[C@H](OC)C2)CC(=O)[C@H](C)/C=C(\C)[C@@H](O)[C@@H](OC)C(=O)[C@H](C)C[C@H](C)/C=C/C=C/C=C/1C [Everolimus] + CC(=O)c1c(C)c2cnc(Nc3ccc(N4CCNCC4)cn3)nc2n(C2CCCC2)c1=O [Palbociclib] (partner 0.5 µM)
In short: as §1

Everolimus + OSI-027 = compound: CO[C@H]1C[C@@H]2CC[C@@H](C)[C@@](O)(O2)C(=O)C(=O)N2CCCC[C@H]2C(=O)O[C@H]([C@H](C)C[C@@H]2CC[C@@H](OCCO)[C@H](OC)C2)CC(=O)[C@H](C)/C=C(\C)[C@@H](O)[C@@H](OC)C(=O)[C@H](C)C[C@H](C)/C=C/C=C/C=C/1C [Everolimus] + COc1cccc2cc(-c3nc([C@H]4CC[C@H](C(=O)O)CC4)n4ncnc(N)c34)[nH]c12 [OSI-027] (partner 0.5 µM)
In short: as §1

Row | Cell Line | relative viability (Everolimus; 0.01 µM) | relative viability (Everolimus; 0.03162 µM) | relative viability (Everolimus; 0.1 µM) | relative viability (Everolimus; 0.3162 µM) | relative viability (Everolimus; 1 µM) | relative viability (Everolimus + Foretinib; first compound 0.01 µM) | relative viability (Everolimus + Foretinib; first compound 0.03162 µM) | relative viability (Everolimus + Foretinib; first compound 0.1 µM) | relative viability (Everolimus + Foretinib; first compound 0.3162 µM) | relative viability (Everolimus + Foretinib; first compound 1 µM) | relative viability (Everolimus + Palbociclib; first compound 0.01 µM) | relative viability (Everolimus + Palbociclib; first compound 0.03162 µM) | relative viability (Everolimus + Palbociclib; first compound 0.1 µM) | relative viability (Everolimus + Palbociclib; first compound 0.3162 µM) | relative viability (Everolimus + Palbociclib; first compound 1 µM) | relative viability (Everolimus + OSI-027; first compound 0.01 µM) | relative viability (Everolimus + OSI-027; first compound 0.03162 µM) | relative viability (Everolimus + OSI-027; first compound 0.1 µM) | relative viability (Everolimus + OSI-027; first compound 0.3162 µM) | relative viability (Everolimus + OSI-027; first compound 1 µM)
1 | NCI-H2405 | 0.791 | 0.774 | 0.731 | 0.767 | 0.74 | 0.973 | 0.857 | 0.763 | 0.809 | 0.781 | 0.336 | 0.351 | 0.332 | 0.381 | 0.358 | 0.505 | 0.474 | 0.532 | 0.459 | 0.488
2 | NCI-H3122 | 0.987 | 0.993 | 0.831 | 0.691 | 0.852 | 0.818 | 0.621 | 0.351 | 0.494 | 0.801 | 0.166 | 0.178 | 0.169 | 0.17 | 0.133 | 0.463 | 0.579 | 0.315 | 0.454 | 0.488
3 | PC-3 [JPC-3] | 1.01 | 1.04 | 0.991 | 0.891 | 0.936 | 1.16 | 1.13 | 0.994 | 0.985 | 0.987 | 0.579 | 0.497 | 0.548 |  | 0.545 | 0.7 | 0.602 | 0.588 | 0.512 | 0.631
4 | PC-14 | 0.808 | 0.759 | 0.679 | 0.657 | 0.734 | 0.986 | 0.968 | 0.928 | 0.756 | 0.854 | 0.43 | 0.368 | 0.336 | 0.301 | 0.295 | 0.567 | 0.482 | 0.418 | 0.455 | 0.455
5 | RERF-LC-KJ | 0.788 | 0.695 | 0.584 | 0.659 | 0.558 | 0.686 | 0.694 | 0.578 | 0.539 | 0.559 | 0.88 | 0.674 | 0.644 | 0.588 | 0.511 | 0.449 | 0.358 | 0.313 | 0.411 | 0.429
